4 compounds from patent US10047051B2, “Substituted pyridines and method of use” (AbbVie S.á{acute over (.)}r.l., priority 2015, dated 2018) can be followed below.

This test deals with ΔF508 CFTR (Homo sapiens, UniProt P13569, DEL508-508). Nature of the test: TECC assay, FRT-CFTR ΔF508 protocol. The test is classed as cell-based. Conditions: FRT cells stably transfected with ΔF508 CFTR, 3 μM VX809 24 hours, increase in transepithelial conductance (Gt), high expression cells. The procedure: For ΔF508 recordings, Fischer Rat Thyroid (FRT) cells stably transfected with ΔF508 CFTR (cell line from Rosalind Franklin University of Medicine and Science, North Chicago, Ill.) are plated on Transwell® supports (Costar 6.5 mm diameter, 0.4 μm pore size Cat n#3378). The cells are grown for 8-10 days under liquid-liquid interface conditions prior to electrophysiological readings. The differentiated cells are treated with 3 μM VX809 (2626 South Loop West, Suite 225, Houston, Tex. 77054 USA, Cat n# S1565) to allow sufficient expression of properly folded CFTR protein on the membrane (24 hours basolateral treatment), prior to electrophysiological recordings. For electrophysiological recording, the FRT-ΔF508 cells are mounted in the TECC heating plate for electrophysiological measurement and kept at 37° C. The epithelia are bathed in HEPES buffered culturing medium without FBS on both the basolateral and apical sides. Apical amiloride is used to inhibit the endogenous ENaC currents while forkolin is applied on both apical and basolateral side to stimulate CFTR. After forskolin triggering, compounds are added on both sides to test their potential for increasing CFTR gating. Measurements are done during a 10 minute timeframe with recordings every 2 minutes. The increase in transepithelial conductance (Gt) is used as a measure for the increased CFTR activity, EC50 values can be generated by measuring impact of different concentrations of compound on Gt of the cells, for this purpose each transwell is treated with a different compound concentration. Inh-172, an inhibitor specific for CFTR, is used to test the specificity of the tested compounds.
Chain of ΔF508 CFTR (P13569 with tags, fused parts or gaps DEL508-508): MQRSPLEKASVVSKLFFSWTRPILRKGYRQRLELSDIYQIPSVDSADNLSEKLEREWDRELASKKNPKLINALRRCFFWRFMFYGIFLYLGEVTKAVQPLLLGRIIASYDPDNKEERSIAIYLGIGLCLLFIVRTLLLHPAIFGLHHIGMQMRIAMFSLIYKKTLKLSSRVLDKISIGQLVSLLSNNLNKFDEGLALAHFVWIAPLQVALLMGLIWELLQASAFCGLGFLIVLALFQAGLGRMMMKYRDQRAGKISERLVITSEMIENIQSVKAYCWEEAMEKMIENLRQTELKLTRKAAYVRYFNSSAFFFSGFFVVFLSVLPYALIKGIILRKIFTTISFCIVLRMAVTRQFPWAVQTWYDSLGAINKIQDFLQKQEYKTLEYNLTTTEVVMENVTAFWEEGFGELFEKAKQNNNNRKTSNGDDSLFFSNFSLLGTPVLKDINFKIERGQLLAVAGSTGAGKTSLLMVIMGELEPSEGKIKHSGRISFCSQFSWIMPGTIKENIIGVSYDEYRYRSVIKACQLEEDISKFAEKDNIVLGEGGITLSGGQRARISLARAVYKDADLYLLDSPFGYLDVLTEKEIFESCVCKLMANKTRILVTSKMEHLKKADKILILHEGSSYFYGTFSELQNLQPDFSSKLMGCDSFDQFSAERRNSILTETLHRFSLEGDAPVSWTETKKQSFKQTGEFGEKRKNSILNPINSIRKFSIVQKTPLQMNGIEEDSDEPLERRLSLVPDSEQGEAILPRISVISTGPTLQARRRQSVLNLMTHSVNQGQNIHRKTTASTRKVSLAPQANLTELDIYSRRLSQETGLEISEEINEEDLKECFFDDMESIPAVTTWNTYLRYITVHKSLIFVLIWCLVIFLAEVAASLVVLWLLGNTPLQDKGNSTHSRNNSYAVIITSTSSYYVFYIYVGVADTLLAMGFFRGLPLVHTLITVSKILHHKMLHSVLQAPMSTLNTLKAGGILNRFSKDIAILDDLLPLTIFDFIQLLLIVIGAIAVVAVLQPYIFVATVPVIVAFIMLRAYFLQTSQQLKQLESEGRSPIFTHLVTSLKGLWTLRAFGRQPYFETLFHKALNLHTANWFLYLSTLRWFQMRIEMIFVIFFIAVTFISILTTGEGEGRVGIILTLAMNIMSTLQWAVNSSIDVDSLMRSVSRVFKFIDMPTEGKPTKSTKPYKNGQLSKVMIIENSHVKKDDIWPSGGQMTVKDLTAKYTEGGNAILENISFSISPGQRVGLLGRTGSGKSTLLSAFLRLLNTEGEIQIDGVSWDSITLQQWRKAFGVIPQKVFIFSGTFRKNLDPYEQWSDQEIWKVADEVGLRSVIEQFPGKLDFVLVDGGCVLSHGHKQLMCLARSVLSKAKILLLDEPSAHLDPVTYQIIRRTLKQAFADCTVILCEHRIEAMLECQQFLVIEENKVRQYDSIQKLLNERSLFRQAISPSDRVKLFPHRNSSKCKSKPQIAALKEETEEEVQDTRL

A word on the EC50: it is the concentration giving half of the maximal effect. `Nc1cc(S(=O)(=O)c2ccc(OC(F)(F)F)cc2)cnc1C(=O)NC[C@@H](O)C(F)(F)F` [Compound 37, 3-amino-N-[(2R)-3,3,3-trifluoro-2-hydroxypropyl]-5-{[4-(trifluoromethoxy)phenyl]sulfonyl}pyridine-2-carboxamide] yielded a concentration for a half-maximal effect (EC50) of 10.4 nM. `CC(C)(O)CNC(=O)c1ncc(S(=O)(=O)c2ccc(OC(F)(F)F)cc2)cc1N` [Compound 1, 3-amino-N-(2-hydroxy-2-methylpropyl)-5-{[4-(trifluoromethoxy)phenyl]sulfonyl}pyridine-2-carboxamide] yielded a concentration for a half-maximal effect (EC50) of 180 nM. For `CC(O)(CNC(=O)c1ncc(S(=O)(=O)c2ccc(OC(F)(F)F)cc2)cc1N)C(F)(F)F` (stereo not shown) [Compound 2, 3-amino-N-(3,3,3-trifluoro-2-hydroxy-2-methylpropyl)-5-{[4-(trifluoromethoxy)phenyl]sulfonyl}pyridine-2-carboxamide], the half-maximal effective concentration (EC50) turned out to be 70 nM. Compound `Nc1cc(S(=O)(=O)c2ccc(F)cc2)cnc1C(=O)NC[C@@H](O)C(F)(F)F` [Compound 36, 3-amino-5-[(4-fluorophenyl)sulfonyl]-N-[(2R)-3,3,3-trifluoro-2-hydroxypropyl]pyridine-2-carboxamide] showed an EC50 of 63.2 nM.
